Test results: ChEMBL document CHEMBL1132799, “Hybridization of non-sulfonylurea insulin secretagogue and thiazolidinedione-derived insulin sensitizer” (2000)

Assays:
3T3-L1 [1] = assay: Insulin-sensitizing activity; triglyceride accumulation from insulin regulated differentiation of 3T3-L1 cells at 1 uM expressed as percent activity of pioglitazone; type: functional, Mus musculus
[2] = Insulin-releasing activity in HIT-T15 cells in the presence of 16.7 mM glucose at 10 uM expressed as percent activity of nateglinide; type: functional, Cricetulus griseus
3T3-L1 [3] = assay: Compound was tested for insulin-sensitizing activity by measuring triglyceride accumulation from insulin regulated differentiation of 3T3-L1 cells at 10 uM expressed as percent activity of pioglitazone; type: functional, Mus musculus

Structure (SMILES) | Activity (3T3-L1 [1]) [%] | Activity [2] [%] | Activity (3T3-L1 [3]) [%]
Cc1oc(C2CCCCC2)nc1CCOc1ccc(/C=C(\CC(=O)N2C[C@H]3CCCC[C@H]3C2)C(=O)O)cc1 | 83 | 93 | 
O=C(O)/C(=C\c1ccc(OCCCc2ccc(C(F)(F)F)cc2)cc1)CC(=O)N1C[C@H]2CCCC[C@H]2C1 | 4 | 130 | 
CCc1ccc(CCOc2ccc(C[C@@H](CC(=O)N3C[C@H]4CCCC[C@H]4C3)C(=O)O)cc2)nc1 | 4 | 105 | 11
O=C(O)/C(=C/c1ccc(OCCn2ccc3ccccc32)cc1)CC(=O)N1C[C@H]2CCCC[C@H]2C1 | 9 | 105 | 
CCc1ccc(CCOc2ccc(C[C@H](CC(=O)N3C[C@H]4CCCC[C@H]4C3)C(=O)O)cc2)nc1 | 17 | 1 | 55
O=C(O)/C(=C\c1ccc(OCc2ccc(C(F)(F)F)cc2)cc1)CC(=O)N1C[C@H]2CCCC[C@H]2C1 | 15 | 130 | 
CN(CCOc1ccc(/C=C(\CC(=O)N2C[C@H]3CCCC[C@H]3C2)C(=O)O)cc1)c1nc2ccccc2o1 | 121 | 60 | 
CN(CCOc1ccc(/C=C(\CC(=O)N2C[C@H]3CCCC[C@H]3C2)C(=O)O)cc1)c1ccccn1 | 87 | 60 | 
CCc1ccc(CCOc2ccc(/C=C(\CC(=O)N3C[C@H]4CCCC[C@H]4C3)C(=O)O)cc2)nc1 | 20 | 136 | 50
O=C(O)/C(=C\c1ccc(OCCc2ccc(C(F)(F)F)cc2)cc1)CC(=O)N1C[C@H]2CCCC[C@H]2C1 | 5 | 93 | 
CCc1ccc(CCOc2ccc(CC(CC(=O)N3C[C@H]4CCCC[C@H]4C3)C(=O)O)cc2)nc1 (stereo partly specified) | 8 | 68 | 30
Cc1oc(-c2ccncc2)nc1CCOc1ccc(/C=C(\CC(=O)N2C[C@H]3CCCC[C@H]3C2)C(=O)O)cc1 | 93 | 49 | 
Cc1oc(-c2ccccc2)nc1CCOc1ccc(/C=C(\CC(=O)N2C[C@H]3CCCC[C@H]3C2)C(=O)O)cc1 | 103 | 145 | 
CCc1ccc(CCOc2ccc(CC(NC(=O)[C@H]3CC[C@H](C(C)C)CC3)C(=O)O)cc2)nc1 (stereo partly specified) | 2 | 33 | 30
Cc1oc(-c2ccccc2)nc1CCOc1ccc(CC(CC(=O)N2C[C@H]3CCCC[C@H]3C2)C(=O)O)cc1 (stereo partly specified) | 45 | 85 | 
CC(C)[C@H]1CC[C@H](C(=O)N[C@H](Cc2ccccc2)C(=O)O)CC1 [NATEGLINIDE] | 6 | 100 | 40
CCc1ccc(CCOc2ccc(CC3SC(=O)NC3=O)cc2)nc1 (stereo unspecified) [PIOGLITAZONE] | 100 | 10 | 100
